In PubChem BioAssay AID2060897 (Molecular Pharmacology Branch, DTP, NCI, 2025):
Several values for one entry are separate records, joined by “and”; a condition that tells them apart may be missing. Equal values may be shown once.

Test system: 966289-007-R4-J1-PDC complex spheroid viability
Experiment: Anticancer human tumor 966289-007-R4-J1-PDC patient-derived pancreatic adenocarcinoma cell line growth inhibition [RAS]
Details: for viability, T/C: stronger effect = lower value
Procedure, shortened: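 Multi-cell-type spheroids: tumor cells plus HUVEC endothelial cells and mesenchymal stem cells. RAS-pathway inhibitors were combined with targeted agents, each dosed in half-log steps down from clinical Cmax, or from 10 microM when Cmax was unknown.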

[1] = curve of first compound, second compound 0.000949 µM
[2] = curve of first compound, second compound 0.003 µM
[3] = curve of first compound, second compound 0.00949 µM
[4] = curve of first compound, second compound 0.03 µM
[5] = curve of first compound, second compound 0.0949 µM
[6] = curve of first compound, second compound 0.3 µM
[7] = second compound 0.000949 µM, first compound 0.00316 µM
[8] = second compound 0.000949 µM, first compound 0.01 µM
[9] = second compound 0.000949 µM, first compound 0.0316 µM
[10] = second compound 0.000949 µM, first compound 0.1 µM
[11] = second compound 0.000949 µM, first compound 0.316 µM
[12] = second compound 0.000949 µM, first compound 1 µM
[13] = second compound 0.003 µM, first compound 0.00316 µM
[14] = second compound 0.003 µM, first compound 0.01 µM
[15] = second compound 0.003 µM, first compound 0.0316 µM
[16] = second compound 0.003 µM, first compound 0.1 µM
[17] = second compound 0.003 µM, first compound 0.316 µM
[18] = second compound 0.003 µM, first compound 1 µM
[19] = second compound 0.00949 µM, first compound 0.00316 µM
[20] = second compound 0.00949 µM, first compound 0.01 µM
[21] = second compound 0.00949 µM, first compound 0.0316 µM
[22] = second compound 0.00949 µM, first compound 0.1 µM
[23] = second compound 0.00949 µM, first compound 0.316 µM
[24] = second compound 0.00949 µM, first compound 1 µM
[25] = second compound 0.03 µM, first compound 0.00316 µM
[26] = second compound 0.03 µM, first compound 0.01 µM
[27] = second compound 0.03 µM, first compound 0.0316 µM
[28] = second compound 0.03 µM, first compound 0.1 µM
[29] = second compound 0.03 µM, first compound 0.316 µM
[30] = second compound 0.03 µM, first compound 1 µM
[31] = second compound 0.0949 µM, first compound 0.00316 µM
[32] = second compound 0.0949 µM, first compound 0.01 µM
[33] = second compound 0.0949 µM, first compound 0.0316 µM
[34] = second compound 0.0949 µM, first compound 0.1 µM
[35] = second compound 0.0949 µM, first compound 0.316 µM
[36] = second compound 0.0949 µM, first compound 1 µM
[37] = second compound 0.3 µM, first compound 0.00316 µM
[38] = second compound 0.3 µM, first compound 0.01 µM
[39] = second compound 0.3 µM, first compound 0.0316 µM
[40] = second compound 0.3 µM, first compound 0.1 µM
[41] = second compound 0.3 µM, first compound 0.316 µM
[42] = second compound 0.3 µM, first compound 1 µM
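Note: spheroids exposed to agents for one week before readout.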
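Throughout, for viability, T/C: percent viability relative to DMSO vehicle control wells as 100%.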

SMILES: CCN1CCN(Cc2ccc(Nc3ncc(F)c(-c4cc(F)c5nc(C)n(C(C)C)c5c4)n3)nc2)CC1 + CCn1c(-c2cc(N3CCN(C)CC3)cnc2C(C)OC)c2c3cc(ccc31)-c1csc(n1)CC(NC(=O)C1CC1C)C(=O)N1CCCC(N1)C(=O)OCC(C)(C)C2
- IC50 [1]: > 1000 nM
- IC50 [2]: > 1000 nM
- IC50 [3]: > 1000 nM
- IC50 [4]: > 1000 nM
- IC50 [5]: > 1000 nM
- IC50 [6]: > 1000 nM
- viability, T/C [7]: 122%
- viability, T/C [8]: 116%
- viability, T/C [9]: 130%
- viability, T/C [10]: 86.2%
- viability, T/C [11]: 92.2%
- viability, T/C [12]: 89.8%
- viability, T/C [13]: 109%
- viability, T/C [14]: 121%
- viability, T/C [15]: 112%
- viability, T/C [16]: 95.7%
- viability, T/C [17]: 114%
- viability, T/C [18]: 85%
- viability, T/C [19]: 93.9%
- viability, T/C [20]: 116%
- viability, T/C [21]: 120%
- viability, T/C [22]: 97.7%
- viability, T/C [23]: 98.7%
- viability, T/C [24]: 96.7%
- viability, T/C [25]: 85.3%
- viability, T/C [26]: 105%
- viability, T/C [27]: 129%
- viability, T/C [28]: 95%
- viability, T/C [29]: 97.8%
- viability, T/C [30]: 85.1%
- viability, T/C [31]: 129%
- viability, T/C [32]: 100%
- viability, T/C [33]: 115%
- viability, T/C [34]: 95.9%
- viability, T/C [35]: 86.9%
- viability, T/C [36]: 88.6%
- viability, T/C [37]: 101%
- viability, T/C [38]: 89.8%
- viability, T/C [39]: 114%
- viability, T/C [40]: 111%
- viability, T/C [41]: 97.9%
- viability, T/C [42]: 79%

SMILES: CCN1CCN(Cc2ccc(Nc3ncc(F)c(-c4cc(F)c5nc(C)n(C(C)C)c5c4)n3)nc2)CC1 + CCn1c(-c2cccnc2C(C)OC)c2c3cc(ccc31)N1CCOC(CC(NC(=O)C(C(C)C)N(C)C(=O)C3(F)CCN(C(=O)C#CC(C)(C)N(C)C)CC3)C(=O)N3CCCC(N3)C(=O)OCC(C)(C)C2)C1
- IC50 [1]: > 1000 nM
- IC50 [2]: > 1000 nM
- IC50 [3]: > 1000 nM
- IC50 [4]: > 1000 nM
- IC50 [5]: > 1000 nM
- IC50 [6]: > 1000 nM
- viability, T/C [7]: 107%
- viability, T/C [8]: 84.9%
- viability, T/C [9]: 104%
- viability, T/C [10]: 81.3%
- viability, T/C [11]: 85.6%
- viability, T/C [12]: 79.3%
- viability, T/C [13]: 106%
- viability, T/C [14]: 78.2%
- viability, T/C [15]: 93.7%
- viability, T/C [16]: 79.8%
- viability, T/C [17]: 93.4%
- viability, T/C [18]: 84.1%
- viability, T/C [19]: 69.9%
- viability, T/C [20]: 90.2%
- viability, T/C [21]: 104%
- viability, T/C [22]: 90.4%
- viability, T/C [23]: 90%
- viability, T/C [24]: 78.5%
- viability, T/C [25]: 77.8%
- viability, T/C [26]: 83.3%
- viability, T/C [27]: 99.5%
- viability, T/C [28]: 81.4%
- viability, T/C [29]: 90.9%
- viability, T/C [30]: 78.9%
- viability, T/C [31]: 78.4%
- viability, T/C [32]: 99.6%
- viability, T/C [33]: 112%
- viability, T/C [34]: 99.8%
- viability, T/C [35]: 94.4%
- viability, T/C [36]: 79.9%
- viability, T/C [37]: 83.3%
- viability, T/C [38]: 88.6%
- viability, T/C [39]: 101%
- viability, T/C [40]: 87.7%
- viability, T/C [41]: 91%
- viability, T/C [42]: 81.3%

SMILES: CC1(C)CCC(Nc2ncc(C(F)(F)F)c(-c3c[nH]c4c(P(C)(C)=O)c(C#N)ccc34)n2)CN1 (stereo not drawn) + C=CC(=O)N1CCN(c2nc(OCC3CCCN3C)nc3c(F)c(-c4nc(N)cc(C)c4C(F)(F)F)c(Cl)cc23)C(C)C1
- IC50 (curve of first compound, second compound 0.00316 µM): 10.2 nM
- IC50 (curve of first compound, second compound 0.01 µM): 12.4 nM
- IC50 (curve of first compound, second compound 0.0316 µM): 6.79 nM
- IC50 (curve of first compound, second compound 0.1 µM): 13.1 nM
- IC50 (curve of first compound, second compound 0.316 µM): 12.2 nM
- IC50 (curve of first compound, second compound 1 µM): 13.8 nM
- viability, T/C (second compound 0.00316 µM, first compound 0.000949 µM): 103%
- viability, T/C (second compound 0.00316 µM, first compound 0.003 µM): 113%
- viability, T/C (second compound 0.00316 µM, first compound 0.00949 µM): 52.6%
- viability, T/C (second compound 0.00316 µM, first compound 0.03 µM): 14%
- viability, T/C (second compound 0.00316 µM, first compound 0.0949 µM): 9.67%
- viability, T/C (second compound 0.00316 µM, first compound 0.3 µM): 8.68%
- viability, T/C (second compound 0.01 µM, first compound 0.000949 µM): 102%
- viability, T/C (second compound 0.01 µM, first compound 0.003 µM): 124%
- viability, T/C (second compound 0.01 µM, first compound 0.00949 µM): 61.4%
- viability, T/C (second compound 0.01 µM, first compound 0.03 µM): 16.4%
- viability, T/C (second compound 0.01 µM, first compound 0.0949 µM): 8.51%
- viability, T/C (second compound 0.01 µM, first compound 0.3 µM): 9.49%
- viability, T/C (second compound 0.0316 µM, first compound 0.000949 µM): 97.4%
- viability, T/C (second compound 0.0316 µM, first compound 0.003 µM): 99.6%
- viability, T/C (second compound 0.0316 µM, first compound 0.00949 µM): 30.1%
- viability, T/C (second compound 0.0316 µM, first compound 0.03 µM): 15.9%
- viability, T/C (second compound 0.0316 µM, first compound 0.0949 µM): 10.5%
- viability, T/C (second compound 0.0316 µM, first compound 0.3 µM): 9.47%
- viability, T/C (second compound 0.1 µM, first compound 0.000949 µM): 118%
- viability, T/C (second compound 0.1 µM, first compound 0.003 µM): 117%
- viability, T/C (second compound 0.1 µM, first compound 0.00949 µM): 64%
- viability, T/C (second compound 0.1 µM, first compound 0.03 µM): 13.9%
- viability, T/C (second compound 0.1 µM, first compound 0.0949 µM): 9.91%
- viability, T/C (second compound 0.1 µM, first compound 0.3 µM): 8.45%
- viability, T/C (second compound 0.316 µM, first compound 0.000949 µM): 103%
- viability, T/C (second compound 0.316 µM, first compound 0.003 µM): 108%
- viability, T/C (second compound 0.316 µM, first compound 0.00949 µM): 59.7%
- viability, T/C (second compound 0.316 µM, first compound 0.03 µM): 15.8%
- viability, T/C (second compound 0.316 µM, first compound 0.0949 µM): 8.13%
- viability, T/C (second compound 0.316 µM, first compound 0.3 µM): 8.27%
- viability, T/C (second compound 1 µM, first compound 0.000949 µM): 113%
- viability, T/C (second compound 1 µM, first compound 0.003 µM): 118%
- viability, T/C (second compound 1 µM, first compound 0.00949 µM): 67.2%
- viability, T/C (second compound 1 µM, first compound 0.03 µM): 15.6%
- viability, T/C (second compound 1 µM, first compound 0.0949 µM): 9.94%
- viability, T/C (second compound 1 µM, first compound 0.3 µM): 7.89%

SMILES: Nc1ccn(C2OC(CO)C(O)C2(F)F)c(=O)n1 (stereo not drawn)
- viability, T/C (compound 0.00316 µM): 100% and 92.9% and 103% (2×)
- viability, T/C (compound 0.01 µM): 30.1% [middle of 4 runs]
- viability, T/C (compound 0.0316 µM): 1.12% and 1.45% (2×) and 1.74%
- viability, T/C (compound 0.1 µM): 1.25% [middle of 4 runs]
- viability, T/C (compound 0.316 µM): 0.85% and 1.16% and 1.48%
- viability, T/C (compound 1 µM): 1.33% [middle of 4 runs]
- IC50 (curve of compound): 7.29 nM [middle of 4 runs]
